ChEMBL document CHEMBL2440045, “The synthesis and anticancer activity of analogs of the indole phytoalexins brassinin, 1-methoxyspirobrassinol methyl ether and cyclobrassinin” (Bioorg Med Chem, 2013)

Experiments:
CCRF-CEM [1] = assay: Selectivity index, ratio of IC50 for HUVEC to IC50 for human CCRF-CEM cells
A549 [2] = assay: Selectivity index, ratio of IC50 for HUVEC to IC50 for human A549 cells
HUVEC = assay: Cytotoxicity against HUVEC assessed as cell viability after 48 hrs by MTT assay; type: cell-based; settings: Homo sapiens
[3] = Selectivity index, ratio of IC50 for HUVEC to IC50 for human MDA-MB-231 cells
MDA-MB-231 [4] = assay: Antiproliferative activity against human MDA-MB-231 cells assessed as cell viability after 72 hrs by MTT assay; type: functional, cell-based; settings: MDA-MB-231, 72 h
HeLa [5] = assay: Antiproliferative activity against human HeLa cells assessed as cell viability after 72 hrs by MTT assay; type: functional, cell-based
Jurkat [6] = assay: Selectivity index, ratio of IC50 for HUVEC to IC50 for human Jurkat cells
MCF7 [7] = assay: Selectivity index, ratio of IC50 for HUVEC to IC50 for human MCF7 cells
MDA-MB-231 [8] = assay: Potency index, ratio of etoposide IC50 to compound IC50 for human MDA-MB-231 cells; type: functional
MCF7 [9] = assay: Antiproliferative activity against human MCF7 cells assessed as cell viability after 72 hrs by MTT assay; type: functional, cell-based; settings: MCF7, 72 h
HeLa [10] = assay: Selectivity index, ratio of IC50 for HUVEC to IC50 for human HeLa cells
Jurkat [11] = assay: Antiproliferative activity against human Jurkat cells assessed as cell viability after 72 hrs by MTT assay; type: functional, cell-based
CCRF-CEM [12] = assay: Antiproliferative activity against human CCRF-CEM cells assessed as cell viability after 72 hrs by MTT assay; type: functional, cell-based
A549 [13] = assay: Antiproliferative activity against human A549 cells assessed as cell viability after 72 hrs by MTT assay; type: functional, cell-based; settings: A549, 72 h

Row | Structure (SMILES) | Ratio IC50 (CCRF-CEM [1]) | Ratio IC50 (A549 [2]) | IC50 (HUVEC) [µM] | Ratio IC50 [3] | IC50 (MDA-MB-231 [4]) [µM] | IC50 (HeLa [5]) [µM] | Ratio IC50 (Jurkat [6]) | Ratio IC50 (MCF7 [7]) | Ratio IC50 (MDA-MB-231 [8]) | IC50 (MCF7 [9]) [µM] | Ratio IC50 (HeLa [10]) | IC50 (Jurkat [11]) [µM] | IC50 (CCRF-CEM [12]) [µM] | IC50 (A549 [13]) [µM]
1 | COc1ccc(NC2=NCc3c([nH]c4ccccc34)S2)cc1 | >5.1 | 1.7 | 51 | 7 | 7.3 | 13.9 | 6.2 | 1.8 | 2 | 28.7 | 3.7 | 8.2 | < 10 | 30.1
2 | FC(F)(F)c1ccc(NC2=NCc3c([nH]c4ccccc34)S2)cc1 | 6.9 | 1.7 | 68.5 | 1.9 | 36.2 | 72.4 | 6.9 | 1.9 |  | 35.7 | 0.9 | 10 | 10 | 40.8
3 | Brc1ccc(NC2=NCc3c([nH]c4ccccc34)S2)cc1 | >6.5 | 2 | 64.8 | 7.5 | 8.6 | 30 | 7.8 | 2.2 | 2 | 29.8 | 2.2 | 8.3 | < 10 | 32
4 | COc1cccc2c1C(=O)c1c(O)c3c(c(O)c1C2=O)C[C@@](O)(C(=O)CO)C[C@@H]3O[C@H]1C[C@H](N)[C@H](O)[C@H](C)O1 [DOXORUBICIN] |  |  | 0.0807 |  |  |  |  |  |  |  |  |  |  | 
5 | Clc1ccc(NC2=NCc3c([nH]c4ccccc34)S2)cc1 | 0.3 | 1.1 | 8.5 | 1.2 | 7.2 | 32.4 | 0.8 | 0.3 | 2 | 30 | 0.3 | 9.8 | 29.8 | 7.4
6 | Cc1ccc(NC2=NCc3c([nH]c4ccccc34)S2)cc1 | >20 | >3.2 | > 100 | >12.6 | 7.9 | 27.5 | >12.5 | 3.1 | 2 | 32.1 | >3.6 | 8 | 5 | 31.2
7 | COc1cc([C@@H]2c3cc4c(cc3[C@@H](O[C@@H]3O[C@@H]5CO[C@@H](C)O[C@H]5[C@H](O)[C@H]3O)[C@H]3COC(=O)[C@H]23)OCO4)cc(OC)c1O [ETOPOSIDE] | 1.14 | 0.09 | 1.25 | 0.06 |  |  | 1.04 | 0.11 |  |  | 0.32 |  |  | 
8 | FC(F)(F)c1cc(NC2=NCc3c([nH]c4ccccc34)S2)cc(C(F)(F)F)c1 | 6.6 | 0.7 | 49.6 | 1.3 | 37.1 | 69.8 | 6.6 | 1.3 |  | 38.7 | 0.7 | 7.5 | 7.5 | 70.1
9 | O=[N+]([O-])c1ccc(NC2=NCc3c([nH]c4ccccc34)S2)cc1 | 11.6 | 1.8 | 58 | 10.7 | 5.4 | 9.3 | 7.8 | 7.5 | 2 | 7.7 | 6.2 | 7.4 | 5 | 32
10 | CO[C@@H]1N(C(=O)OC(C)(C)C)c2ccccc2[C@@]12CN=C(N1CCOCC1)S2 (racemic) |  |  |  |  | > 100 | 76 |  |  |  | 69.5 |  | 34.5 | 35.9 | > 100
11 | CN(C1=NCc2c([nH]c3ccccc23)S1)c1ccccc1 |  |  |  |  | 42.4 | 71.7 |  |  |  | 95 |  | 75.5 | 28 | 91.5
12 | CO[C@H]1N(C(=O)OC(C)(C)C)c2ccccc2[C@@]12CN=C(Nc1ccc(C)cc1)S2 (racemic) |  |  |  |  | 35.6 | 20.2 |  |  |  | 32.9 |  | 25.7 | 14.4 | 31.4
13 | c1ccc(NC2=NCc3c([nH]c4ccccc34)S2)cc1 | >11 | >2.9 | > 100 | >8 | 12.2 | 27 | >10 | 3 |  | 31.6 | >3.7 | 9.5 | 9 | 34.1
14 | CNC1=NC[C@]2(S1)c1ccccc1N(C(=O)OC(C)(C)C)[C@@H]2OC (racemic) |  |  |  |  | > 100 | > 100 |  |  |  | > 100 |  | 83.4 | 44.4 | > 100
15 | CO[C@H]1N(C(=O)OC(C)(C)C)c2ccccc2[C@@]12CN=C(Nc1ccc(Br)cc1)S2 (racemic) |  |  |  |  | 31.5 | 28 |  |  |  | 29.5 |  | 8 | 5 | 33
16 | CN(C(=S)NCc1cn(C(=O)OC(C)(C)C)c2ccccc12)c1ccccc1 |  |  |  |  | > 100 | > 100 |  |  |  | > 100 |  | > 100 | > 100 | > 100
17 | CSC1=NCc2c([nH]c3ccccc23)S1 [CYCLOBRASSININ] | 2.2 | 0.8 | 57.9 | 1.2 | 48.3 | 57.2 | 1.9 | 0.8 |  | 72 | 1 | 29.5 | 26.2 | 70.3
18 | CNC(=S)NCc1cn(C(=O)OC(C)(C)C)c2ccccc12 |  |  |  |  | > 100 | > 100 |  |  |  | > 100 |  | > 100 | > 100 | > 100
19 | CO[C@@H]1N(C(=O)OC(C)(C)C)c2ccccc2[C@@]12CN=C(Nc1ccc(C(F)(F)F)cc1)S2 (racemic) |  |  |  |  | 21.3 | 11.3 |  |  |  | 11.1 |  | 5.6 | 6.7 | 17.9
20 | Fc1ccc(NC2=NCc3c([nH]c4ccccc34)S2)cc1 | 24.7 | 1.4 | 42 | 4.7 | 8.9 | 21.7 | 5.3 | 1.2 | 2 | 33.8 | 1.9 | 8 | 1.7 | 29
21 | CO[C@H]1N(C(=O)OC(C)(C)C)c2ccccc2[C@@]12CN=C(Nc1ccc([N+](=O)[O-])cc1)S2 (racemic) |  |  |  |  | 37.5 | 31.3 |  |  |  | 33 |  | 20.2 | 18.4 | 33
22 | CC(C)(C)OC(=O)n1cc(CNC(=S)NC2CCCCC2)c2ccccc21 |  |  |  |  | 37.5 | 8 |  |  |  | 21.5 |  | 11 | 7 | 33.5
23 | CC(C)(C)OC(=O)n1cc(CNC(=S)N2CCCCC2)c2ccccc21 |  |  |  |  | > 100 | 36.8 |  |  |  | > 100 |  | 37.6 | 37 | 60.1
24 | CSC(=S)NCc1c[nH]c2ccccc12 [BRASSININ] |  |  |  |  | > 100 | > 100 |  |  |  | > 100 |  | > 100 | 90.2 | > 100
25 | c1ccc2c3c([nH]c2c1)SC(N1CCCCC1)=NC3 |  |  |  |  | 35.5 | 40.7 |  |  |  | 37.1 |  | 7.3 | 6.6 | 42.2
26 | COc1ccc(/C=C\c2cc(OC)c(OC)c(OC)c2)cc1O [COMBRETASTATIN A4] |  |  | 0.005 |  |  |  |  | 2 |  |  |  |  |  | 
27 | CSC1=NC[C@]2(S1)c1ccccc1N(C(=O)OC(C)(C)C)[C@@H]2O (racemic) |  |  |  |  | 82.8 | 78 |  |  |  | 100 |  | 34 | 30.6 | 100
